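Method: 48-hour compound exposure of cells in 96-well plates, five concentrations, linear interpolation of endpoints. GI50 marks 50% less growth.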 The source made the active and inactive calls. No stated cut-off is given here; in the data, active = GI50 up to about 1.1 µM and inactive = higher.
Experiments:
Assay in all cases: NCI anticancer screen, dose series, 48 h
XF498 = tested on: XF498
SNB-78 = tested on: SNB-78
M19-MEL = tested on: M19-MEL
DMS-273 = tested on: DMS-273
LXFL 529 = tested on: LXFL 529
RXF 631 = tested on: RXF 631
BT-549 = tested on: BT-549
DMS-114 = tested on: DMS-114
HOP-18 = tested on: HOP-18

O=C1CCC(=O)N1CNc1cccc(NCN2C(=O)CCC2=O)c1
GI50 (XF498): > 100 µM (inactive)
GI50 (SNB-78): > 100 µM (inactive)
GI50 (M19-MEL): > 100 µM (inactive)
GI50 (DMS-273): 61.1 µM (inactive)
GI50 (LXFL 529): 56.8 µM (inactive)
GI50 (RXF 631): > 100 µM (inactive)

COc1ccc2cc(-c3ccc(OC)c(OC)c3)c(=O)oc2c1
GI50 (BT-549): > 100 µM (inactive)

O=C(Nn1c(-c2ccccc2)nc2ccccc2c1=O)c1ccccc1O
GI50 (BT-549): 38.6 µM (inactive)

O=C(O)c1ccc(S(=O)(=O)c2ccccc2[N+](=O)[O-])cc1
GI50 (BT-549): > 10 µM (inactive)

CC1CC2C(=O)N(c3ccccc3)C(=O)C2c2[nH]c3ccccc3c21 (configuration not stated)
GI50 (DMS-114): 30.7 µM (inactive)
GI50 (SNB-78): > 100 µM (inactive)
GI50 (M19-MEL): 41.5 µM (inactive)
GI50 (DMS-273): 79.4 µM (inactive)
GI50 (LXFL 529): 42.5 µM (inactive)
GI50 (RXF 631): 34.3 µM (inactive)

O=C1N2CCc3c([nH]c4ccccc34)C23CC2CCCCC12S3 (configuration not stated)
GI50 (BT-549): > 100 µM (inactive)

C=CC[C@H]1C[C@@]2(C)OC[C@H](C(C)C)N2C1=O
GI50 (XF498): > 100 µM (inactive)
GI50 (SNB-78): > 100 µM (inactive)
GI50 (M19-MEL): > 100 µM (inactive)
GI50 (DMS-273): > 100 µM (inactive)
GI50 (HOP-18): > 100 µM (inactive)

Cn1nc(-c2ccccc2)c(N=[N+]=[N-])cc1=O
GI50 (DMS-114): > 100 µM (inactive)
GI50 (XF498): > 100 µM (inactive)
GI50 (M19-MEL): > 100 µM (inactive)
GI50 (DMS-273): > 100 µM (inactive)
GI50 (LXFL 529): > 100 µM (inactive)

C=C(C)CCOC(c1ccccc1)(c1ccccc1)c1ccccc1
GI50 (XF498): 26.1 µM (inactive)
GI50 (SNB-78): 70.1 µM (inactive)
GI50 (M19-MEL): 27.9 µM (inactive)
GI50 (LXFL 529): 45.8 µM (inactive)
GI50 (RXF 631): 55.5 µM (inactive)

CCCC1CC(=O)NC(=O)C1C(=O)OC(C)(C)C (configuration not stated)
GI50 (BT-549): > 100 µM (inactive)

NCCc1ccc2c(c1)C(=O)c1c(O)ccc(O)c1C2=O
GI50 (BT-549): 6.73 µM (inactive)

CC(=O)O[C@H]1C[C@H](O[C@H]2[C@@H](O)C[C@H](O[C@H]3[C@@H](O)C[C@H](O[C@H]4CC[C@@]5(C)[C@H](CC[C@@H]6[C@@H]5CC[C@]5(C)[C@@H](C7=CC(=O)OC7)CC[C@]65O)C4)O[C@@H]3C)O[C@@H]2C)O[C@H](C)[C@H]1O[C@@H]1O[C@H](CO)[C@@H](O)[C@H](O)[C@H]1O
GI50 (BT-549): < 0.0167 µM (active)

COc1ccccc1NCC(=O)Nn1c(C)nc2ccc(S(=O)(=O)Nc3ccccc3OC)cc2c1=O
GI50 (BT-549): > 100 µM (inactive)

COC(=O)/C1=C/c2c([nH]c3ccccc23)/C(C(=O)OC)=C\c2c1[nH]c1ccccc21 [CAULERPIN]
GI50 (BT-549): 25.6 µM (inactive)

Cc1ccc(S(=O)(=O)N2CCC3(C(/C=C/c4ccccc4)=Nc4ccccc43)C2c2ccccc2)cc1 (configuration not stated)
GI50 (DMS-114): > 100 µM (inactive)
GI50 (XF498): 63.1 µM (inactive)
GI50 (SNB-78): > 100 µM (inactive)
GI50 (M19-MEL): > 100 µM (inactive)
GI50 (DMS-273): > 100 µM (inactive)
GI50 (LXFL 529): > 100 µM (inactive)

CC1CC[C@@]2(OC1)OC1C[C@H]3[C@@H]4CC[C@H]5CC(OC6OC(CO)C(OC7OC(CO)C(O)C(O)C7OC7OC(CO)C(O)C(O)C7O)C(O)C6O)CCC5(C)[C@H]4CCC3(C)C1[C@@H]2C (some centres not stated)
GI50 (BT-549): 1.38 µM (inactive)

C#CCSC(C=C=C)P(=O)(OC(C)C)OC(C)C (configuration not stated)
GI50 (BT-549): 26.4 µM (inactive)

Cc1cccc(Nc2cn(COCc3ccccc3)c(=O)[nH]c2=O)c1
GI50 (BT-549): 69.2 µM (inactive)

COc1cc(/C=N/n2c(-c3ccccc3)n[nH]c2=O)cc(OC)c1OC
GI50 (BT-549): 2.13 µM (inactive)

COC1/C=C/C(C)C(C(C)C(OC)C(C)CCC(=O)C(C)C(C/C=C/N(C)C=O)OC)OC(=O)C=CC2OC2(C)CC(OC)C(OC)C2=CC(=O)O[C@@H](C(C)C(OC)CC(OC)/C=C/C(C)C(O)C1)[C@H]2O (some centres not stated)
GI50 (BT-549): 0.0214 µM (active)

COc1ccn(CC(=O)c2cc3ccccc3[nH]2)c(=O)n1
GI50 (BT-549): > 100 µM (inactive)

CN1CCCC(C(=O)OCC(=O)C2(O)CCC3C4CCC5=CC(=O)CCC5(C)C4C(O)CC32C)C1 (configuration not stated)
GI50 (BT-549): 16.7 µM (inactive)

O=C(CSCC(=O)N/N=C/c1cccs1)N/N=C/c1cccs1
GI50 (BT-549): 43.2 µM (inactive)

O=Cc1ccc(-c2ccc(-c3ccc(CO)s3)o2)s1
GI50 (BT-549): 6.24 µM (inactive)

CCOc1cc2c(NCCCN(CCO)CCO)ncnc2c(OCC)c1OCC
GI50 (BT-549): > 76.4 µM (inactive)

COc1nc2ncc([C@@H](O)[C@H](O)CO)nc2c(=O)[nH]1
GI50 (BT-549): 99.1 µM (inactive)

CCCCCCCCCC[C@@H](O)[C@H]1CC[C@@H]([C@H]2CC[C@H]([C@H](O)CCCCCCCCCC[C@@H]3CC(CC(C)=O)C(=O)O3)O2)O1 (some centres not stated)
GI50 (BT-549): 2.48 µM (inactive)

Cc1nc2ccccc2c(=O)n1-c1ccccc1F
GI50 (DMS-114): > 100 µM (inactive)
GI50 (SNB-78): > 100 µM (inactive)
GI50 (M19-MEL): > 100 µM (inactive)
GI50 (DMS-273): > 100 µM (inactive)
GI50 (HOP-18): > 100 µM (inactive)
GI50 (LXFL 529): > 100 µM (inactive)

CN(C)CCNC(=O)Cn1cc([N+](=O)[O-])c(=O)c2ccccc21
GI50 (BT-549): > 100 µM (inactive)

CC(=O)Nc1ccc(S(=O)(=O)NN(C)S(=O)(=O)c2ccc(C)cc2)cc1
GI50 (DMS-114): > 100 µM (inactive)
GI50 (M19-MEL): > 100 µM (inactive)

O=C1NC2(C=Cc3c(ccc4ccccc34)O2)Oc2ccccc21 (configuration not stated)
GI50 (DMS-114): 13.2 µM (inactive)
GI50 (XF498): 19.1 µM (inactive)
GI50 (SNB-78): 20.7 µM (inactive)
GI50 (M19-MEL): 25.1 µM (inactive)
GI50 (DMS-273): 9.51 µM (inactive)
GI50 (LXFL 529): 18.3 µM (inactive)

O=C1CCC(=O)c2ccccc2N1
GI50 (DMS-114): > 100 µM (inactive)
GI50 (XF498): > 100 µM (inactive)
GI50 (M19-MEL): > 100 µM (inactive)
GI50 (DMS-273): > 100 µM (inactive)
GI50 (HOP-18): > 100 µM (inactive)
GI50 (LXFL 529): > 100 µM (inactive)

O=S(=O)(c1ccc(Br)cc1)n1c2ccc(Br)cc2c2nc3ccccc3nc21
GI50 (BT-549): > 100 µM (inactive)

O=C(NCCNCCNC(=O)c1cc(-c2ccccc2)nc2ccccc12)c1cc(-c2ccccc2)nc2ccccc12
GI50 (BT-549): 7.91 µM (inactive)
